Legend:
Format in all cases: in vivo
corn (Zea mays) [1] = experiment: Test G Pre-Emergence Protocol; details: Zea mays, pre-emergence, 312 h, evaluated after 13 days
In short: (§1)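 Seeds were sown in standard soil and kept one day in a glasshouse (24/16° C day/night, 14 h light, 65% humidity), then sprayed with compound in acetone/water (50:50) containing 0.5% Tween 20 at 15.625, 62.5 or 250 g/ha. Damage was scored after 13 days (0 = none, 100 = total).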

[2] = system: ivy-leaved morning glory (Ipomoea hederacea); experiment: Test G Pre-Emergence Protocol; details: Ipomoea, pre-emergence, 312 h, evaluated after 13 days
In short: as §1

[3] = system: barnyardgrass (Echinochloa crus-galli); experiment: Test G Pre-Emergence Protocol; details: Echinochloa crus-galli, pre-emergence, 312 h, evaluated after 13 days
In short: as §1

[4] = system: velvetleaf (Abutilon theophrasti); experiment: Test G Pre-Emergence Protocol; details: Abutilon theophrasti, pre-emergence, 312 h, evaluated after 13 days
In short: as §1

[5] = system: redroot pigweed (Amaranthus retroflexus); experiment: Test G Pre-Emergence Protocol; details: Amaranthus retroflexus, pre-emergence, 312 h, evaluated after 13 days
In short: as §1

[6] = system: giant foxtail (Setaria faberi); experiment: Test G Pre-Emergence Protocol; details: Setaria faberi, pre-emergence, 312 h, evaluated after 13 days
In short: as §1

corn (Zea mays) [7] = experiment: Test G Post-Emergence Protocol; details: Zea mays, post-emergence, 312 h
In short: (§2)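 Scores run 0 (no damage) to 100 (total damage) and were taken 13 days after spraying. Plants had been raised in pots for 8 days under glasshouse control (24/16 °C, 14 h photoperiod, 65% humidity) and then treated at 15.625, 62.5 or 250 g/ha.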

[8] = system: ivy-leaved morning glory (Ipomoea hederacea); experiment: Test G Post-Emergence Protocol; details: Ipomoea, post-emergence, 312 h
In short: as §2

[9] = system: barnyardgrass (Echinochloa crus-galli); experiment: Test G Post-Emergence Protocol; details: Echinochloa crus-galli, post-emergence, 312 h
In short: as §2

[10] = system: velvetleaf (Abutilon theophrasti); experiment: Test G Post-Emergence Protocol; details: Abutilon theophrasti, post-emergence, 312 h
In short: as §2

[11] = system: redroot pigweed (Amaranthus retroflexus); experiment: Test G Post-Emergence Protocol; details: Amaranthus retroflexus, post-emergence, 312 h
In short: as §2

[12] = system: giant foxtail (Setaria faberi); experiment: Test G Post-Emergence Protocol; details: Setaria faberi, post-emergence, 312 h
In short: as §2

Cc1onc(NC(=O)[C@@H]2C(=O)N(C)C[C@H]2c2ccc(C(F)(F)F)cc2)c1Cl (racemic) [Compound 1580]
0%: plant injury at 15.625 g/ha (corn (Zea mays) [1]; 15.625 g ai/ha, read-out: Corn damage rating (100=total damage to plant; 0=no damage to plant)) | plant injury at 62.5 g/ha (corn (Zea mays) [1]; 62.5 g ai/ha, 100=total damage to plant, 0=no damage to plant, read-out: plant damage rating, Corn) | plant injury at 250 g/ha (corn (Zea mays) [1]; 250 g ai/ha, read-out: Corn damage rating (100=total damage to plant; 0=no damage to plant)) | pest or weed control at 15.625 g/ha ([2]; 15.625 g ai/ha, read-out: Morning-glory, Ivy-leaved damage rating (100=total damage to plant; 0=no damage to plant)) | pest or weed control at 62.5 g/ha ([2]; 62.5 g ai/ha, 100=total damage to plant, 0=no damage to plant, read-out: plant damage rating, Morningglory, Ivy-leaved) | pest or weed control at 250 g/ha ([2]; 250 g ai/ha, read-out: Morningglory, Ivy-leaved damage rating (100=total damage to plant; 0=no damage to plant)) | pest or weed control at 15.625 g/ha ([3]; 15.625 g ai/ha, read-out: Barnyard grass damage rating (100=total damage to plant; 0=no damage to plant)) | pest or weed control at 62.5 g/ha ([3]; 62.5 g ai/ha, 100=total damage to plant, 0=no damage to plant, read-out: plant damage rating, Barnyardgrass) | pest or weed control at 250 g/ha ([3]; 250 g ai/ha, read-out: Barnyardgrass damage rating (100=total damage to plant; 0=no damage to plant)) | pest or weed control at 15.625 g/ha ([4]; 15.625 g ai/ha, read-out: Velvetleaf damage rating (100=total damage to plant; 0=no damage to plant)) | pest or weed control at 62.5 g/ha ([4]; 62.5 g ai/ha, 100=total damage to plant, 0=no damage to plant, read-out: plant damage rating, Velvetleaf) | pest or weed control at 250 g/ha ([4]; 250 g ai/ha, read-out: Velvetleaf damage rating (100=total damage to plant; 0=no damage to plant)) | pest or weed control at 15.625 g/ha ([5]; 15.625 g ai/ha, read-out: Pigweed, Redroot damage rating (100=total damage to plant; 0=no damage to plant)) | pest or weed control at 62.5 g/ha ([5]; 62.5 g ai/ha, 100=total damage to plant, 0=no damage to plant, read-out: plant damage rating, Pigweed, Redroot) | pest or weed control at 250 g/ha ([5]; 250 g ai/ha, read-out: Pigweed, Redroot damage rating (100=total damage to plant; 0=no damage to plant)) | pest or weed control at 15.625 g/ha ([6]; 15.625 g ai/ha, read-out: Foxtail, Giant damage rating (100=total damage to plant; 0=no damage to plant)) | pest or weed control at 62.5 g/ha ([6]; 62.5 g ai/ha, 100=total damage to plant, 0=no damage to plant, read-out: plant damage rating, Foxtail, Giant) | pest or weed control at 250 g/ha ([6]; 250 g ai/ha, read-out: Foxtail, Giant damage rating (100=total damage to plant; 0=no damage to plant)) | plant injury at 15.625 g/ha (corn (Zea mays) [7]; 15.625 g ai/ha, evaluated after 13 days (100=total damage to plant; 0=no damage to plant), read-out: Corn damage rating) | plant injury at 62.5 g/ha (corn (Zea mays) [7]; 62.5 g ai/ha, evaluated after 13 days, read-out: Corn damage rating (100=total damage to plant; 0=no damage to plant)) | plant injury at 250 g/ha (corn (Zea mays) [7]; 250 g ai/ha, evaluated after 13 days, read-out: damage to plant, Corn (100=total damage to plant; 0=no damage to plant)) | pest or weed control at 15.625 g/ha ([8]; 15.625 g ai/ha, evaluated after 13 days (100=total damage to plant; 0=no damage to plant), read-out: Morningglory, Ivy-leaved damage rating) | pest or weed control at 62.5 g/ha ([8]; 62.5 g ai/ha, evaluated after 13 days, read-out: Morningglory, Ivy-leaved damage rating (100=total damage to plant; 0=no damage to plant)) | pest or weed control at 250 g/ha ([8]; 250 g ai/ha, evaluated after 13 days, read-out: damage to plant, Morningglory, Ivy-leaved (100=total damage to plant; 0=no damage to plant)) | pest or weed control at 15.625 g/ha ([9]; 15.625 g ai/ha, evaluated after 13 days (100=total damage to plant; 0=no damage to plant), read-out: Barnyardgrass damage rating) | pest or weed control at 62.5 g/ha ([9]; 62.5 g ai/ha, evaluated after 13 days, read-out: Barnyardgrass damage rating (100=total damage to plant; 0=no damage to plant)) | pest or weed control at 250 g/ha ([9]; 250 g ai/ha, evaluated after 13 days, read-out: damage to plant, Barnyardgrass (100=total damage to plant; 0=no damage to plant)) | pest or weed control at 15.625 g/ha ([10]; 15.625 g ai/ha, evaluated after 13 days (100=total damage to plant; 0=no damage to plant), read-out: Velvetleaf damage rating) | pest or weed control at 62.5 g/ha ([10]; 62.5 g ai/ha, evaluated after 13 days, read-out: Velvetleaf damage rating (100=total damage to plant; 0=no damage to plant)) | pest or weed control at 250 g/ha ([10]; 250 g ai/ha, evaluated after 13 days, read-out: damage to plant, Velvetleaf (100=total damage to plant; 0=no damage to plant)) | pest or weed control at 15.625 g/ha ([11]; 15.625 g ai/ha, evaluated after 13 days (100=total damage to plant; 0=no damage to plant), read-out: Pigweed, Redroot damage rating) | pest or weed control at 62.5 g/ha ([11]; 62.5 g ai/ha, evaluated after 13 days, read-out: Pigweed, Redroot damage rating (100=total damage to plant; 0=no damage to plant)) | pest or weed control at 250 g/ha ([11]; 250 g ai/ha, evaluated after 13 days, read-out: damage to plant, Pigweed, Redroot (100=total damage to plant; 0=no damage to plant)) | pest or weed control at 15.625 g/ha ([12]; 15.625 g ai/ha, evaluated after 13 days (100=total damage to plant; 0=no damage to plant), read-out: Foxtail, Giant damage rating) | pest or weed control at 62.5 g/ha ([12]; 62.5 g ai/ha, evaluated after 13 days, read-out: Foxtail, Giant damage rating (100=total damage to plant; 0=no damage to plant)) | pest or weed control at 250 g/ha ([12]; 250 g ai/ha, evaluated after 13 days, read-out: damage to plant, Foxtail, Giant (100=total damage to plant; 0=no damage to plant))

Reference: patent US12077503B2, “Substituted cyclic amides and their use as herbicides” (FMC CORPORATION, priority 2015, dated 2024)
